{
  "source": "patent US5066644A",
  "about": "“Derivatives of thiazolidine-4-carboxylic acid, its preparation and pharmaceutical compositions containing it” (Poli Industria Chimica S.p.A., priority 1989, dated 1991)",
  "type_in_all_cases": "in vivo",
  "key": {"peritoneal macrophages": {"tested_on": "peritoneal macrophages", "assay": "Superoxide anion production by peritoneal macrophages from prednisolone-immunodepressed mice", "settings": "200 mg/kg/die i.p. + prednisolone 0,5 mg/kg/die/s.c.; macrophages stimulated with phorbol myristate acetate", "source_text": "Since the production of superoxide anion (O2 ) plays an important role in the microbicidal activity of macrophages (N. P. Cumming, M. J. Pabst, J.Exp.Med., 152, 1649, 1980), the showing of a stimulation of the superoxide anion in the macrophages by drugs provides a very important test for the evaluation of immunostimulating activity. The production of O2 in peritoneal macrophages isolated from prednisolone immunodepressed animals treated with the compounds of the invention was therefore evaluated. The mice were treated subcutaneously for two days with 0.5 mg/kg/day of prednisolone and with the compounds under examination at the dose of 100 mg/kg twice a day, whereas the morning of the animals sacrifice the animals received the compounds only. The macrophages were then isolated by means of a peritoneal washing and cultured in RPMI-1640 added with 10% foetal calf serum, at the concentration of 1×10^6 cells/ml at the temperature of ±37° C. Amounts of 1 ml of cell suspension were incubated for 15' at 37° C. with horse heart cytochrome C and stimulated with phorbol myristate acetate (H. Nielsen, Eur.J.Clin.Pharmacol., 30, 90, 1986). A specrophotometric determination at λ=550 nm of the reduced ferricytochroma using an extinction coefficient E(550)=29.5 mM was then carried out. As it turns out from Table 1, the prednisolone treatment induces an immunosuppression resulting in a lesser production of superoxide anion; the contemporaneous treatment with the compounds of the invention stimulates the 02 production by macrophages up to values close to those of control animals. The compounds have an activity which is from similar to higher than that of PGT at equiponderal doses."}, "E. coli": {"tested_on": "E. coli", "assay": "Endoperitoneal E. coli infection in mice", "settings": "200 mg/kg/die os; for N° dead mice/N° treated mice: death-rate recorded 7-8 days after infection", "description": "The compounds were tested in endoperitoneal infection in mice. Male COBS CD-1 mice weighing 22-25 g were inoculated i.p. with 0.5 ml/mouse of a pathogenic E.coli suspension (in saline solution+0.5% porcine gastric mucine), having a transmittance of about 50%. The mice were treated orally with the compounds twice a day from two days before until the day of the infection, 7 hours before the inoculation.\nThe death-rate was recorded for about 7-8 days after the infection."}, "[1]": {"tested_on": "delayed hypersensitivity by DNCB", "assay": "Delayed hypersensitivity induced by DNCB in prednisolone-immunodepressed mice", "settings": "200 mg/kg/die os; for Weight left ear/Weight right ear: 24 hours after challenge; for Increase %: vs. control group", "description": "Male COBS CD-2 mice weighing about 30 g were sensitized with 25 μl of dinitrochlorobenzene (DNCB) at the concentration of 20 mg/ml in acetone applied on a zone of the abdomen depilated at least 2 hours before.\nAfter 12 hours the animals were challenged with 5 μl of DNCB at the concentration of 10 mg/ml in acetone applied on the external surface of the left auricolar pinna.\nIn order to carry out this operation the mice were slightly anesthetized with ether. The mice were treated with the compounds under examination from two days before until the day of sensitization and with the compounds and with prednisolone (0.5 mg/kg/die s.c.; 0.5 ml/10 g) from the tenth day after sensitization until the day when challenge occurred.\nThe animals were killed 24 hours after the challenge; both ears were cut and weighed. The values are expressed as the ratio between the left ear (sensitized) and the right one (unsensitized). […] The increase was higher than that obtained after oral administration of PGT."}, "rosette forming cells": {"tested_on": "rosette forming cells", "assay": "Rosette forming cells (primary response) in prednisolone-immunodepressed mice", "settings": "200 mg/kg/die os; for Rosette forming cells change %: vs. control group", "description": "The compounds of the invention are also active in the test of the rosette forming cells (primary response; II° type) in prednisolone immunodepressed mice (S. D. Wilson, Immunology, 21, 233, 1971).\nMale COBS CD-1 mice weighing about 25 g were treated for 7 days twice a day, with the compounds of the invention and at the second and third day with prednisolone at the dose of 5 mg/kg/s.c. (0.05 ml/10 g).\nAfter 4 days from the start of the treatment the\n10 animals were immunized with 5×10^8 sheep red blood cells in 0.2 ml of PBS by intraperitoneal route. The red blood cells were prepared by centrifugating the citrated sheep blood at 1500 rpm for 15 min.; the precipitated red blood cells were washed twice at 1200 rpm for 10 min. in PBS removing the first layer, then suspended again in PBS and counted adjusting at 2.5×10^9 cells/ml.\nAfter 6 days from the immunization the rosette test was carried out by killing the mice and removing the spleen, which was placed in 1 ml of Hank solution in ice-bath and then triturated, homogenated and gauze-filtered. The homogenate was washed twice in Hank, centrifugating at 1200 rpm for 10 min. and then suspended again. The suspension was adjusted to 6×10^7 cells/ml by counting at the Coulter Counter after lysis of the red blood cells. 100 μl of spleen cells suspension (6×10^7 /ml)+100 μl of red blood cells suspension (3×10^8 /ml) were mixed in 0.8 ml of Hank stirring slightly for 1 minute. The samples were incubated for 24 h at+4° C. avoiding any stirring. The samples were then stirred and the number of rosette forming cells/ml was evaluated by means of the Burker apparatus."}, "[2]": {"tested_on": "reticulo-endothelial system", "assay": "Activity of the reticulo-endothelial system (colloidal charcoal clearance) in cyclophosphamide-immunodepressed mouse", "settings": "100 mg/kg/die i.p.; for Absorbance Δ (0'-20'): means ± SE of 10 mice, absorbance at 640 nm", "description": "The compounds of the invention are also active in the test of the activity of the reticulo-endothelial system in the mouse immunodepressed by cyclophosphamide (Biozzi G. et al., Brit. J. Path., 34, 441, 1953). COBS CD-1 mice were injected i.v. with colloidal charcoal (0.32 ml of china ink/ml of saline), 10 μl of retroorbital blood were then taken out immediately before and after 1, 10 and 20 min. from the intravenous injection, the blood sample was placed in 3 ml of HCl 0.1 N and the absorbance was evaluated at 640 nm and the change of absorbance was evaluated between the time 0 and 20 min. The animals were treated with cyclophosphamide (100 mg/kg i.p.) from the third to the fifth day of treatment and with the compounds under test for 10 consecutive days; the day after the last treatment the test was carried out."}},
  "note": "Non-standard residues stand in square brackets, D forms with d. Residues, ends and D or L forms follow the SMILES beside them. ξ: configuration not given here. *: point of attachment. pGlu = O=C1CC[C@@H](C(=O)O)N1; Morpholide = C1CN(*)CCO1; ξThz = O=C(O)C1CSCN1",
  "data": [
    {"smiles": "NC(=O)C1CSCN1C(=O)[C@@H]1CCC(=O)N1", "note": "(stereo partly drawn) [Ia, 3-Pyroglutamyl-thiazolidine-4-carboxamide] ([pGlu]-[ξThz]-NH2)", "values": [
      {"measurement": "nmol cytochrome C reduced/1 × 10^6 macrophages (mean ± S.E.)", "setting": "peritoneal macrophages", "value": "9.25 ± 0.48 nmol cytochrome C reduced/1 ×"},
      {"measurement": "Protection (%)", "setting": "E. coli", "value": 40, "unit": "%"},
      {"measurement": "N° dead mice/N° treated mice", "setting": "E. coli", "value": "6/10"},
      {"measurement": "Weight left ear/Weight right ear", "setting": "[1]", "value": "1.688 ± 0.029"},
      {"measurement": "Increase %", "setting": "[1]", "value": 27.68, "unit": "%"},
      {"measurement": "Rosette forming cells/spleen cells %", "setting": "rosette forming cells", "value": "1.140 ± 0.032", "unit": "%"},
      {"measurement": "Rosette forming cells change %", "setting": "rosette forming cells", "value": "+34.12%"},
      {"measurement": "Variation versus the cyclophosphamide treated group %", "setting": "[2]", "value": "+15.62%"},
      {"measurement": "Absorbance Δ (0'-20')", "setting": "[2]", "value": "0.370 ± 0.013"}
    ]},
    {"smiles": "O=C1CC[C@@H](C(=O)N2CSCC2C(=O)N2CCOCC2)N1", "note": "(stereo partly drawn) [Ib, N-(3-Pyroglutamyl-thiazolidine-4-carbonyl)morpholine] ([pGlu]-[ξThz]-Morpholide)", "values": [
      {"measurement": "nmol cytochrome C reduced/1 × 10^6 macrophages (mean ± S.E.)", "setting": "peritoneal macrophages", "value": "9.62 ± 0.63 nmol cytochrome C reduced/1 ×"},
      {"measurement": "Protection (%)", "setting": "E. coli", "value": 40, "unit": "%"},
      {"measurement": "N° dead mice/N° treated mice", "setting": "E. coli", "value": "6/10"},
      {"measurement": "Weight left ear/Weight right ear", "setting": "[1]", "value": "1.702 ± 0.026"},
      {"measurement": "Increase %", "setting": "[1]", "value": 28.74, "unit": "%"},
      {"measurement": "Rosette forming cells/spleen cells %", "setting": "rosette forming cells", "value": "1.138 ± 0.038", "unit": "%"},
      {"measurement": "Rosette forming cells change %", "setting": "rosette forming cells", "value": "+33.88%"},
      {"measurement": "Variation versus the cyclophosphamide treated group %", "setting": "[2]", "value": "+19.37%"},
      {"measurement": "Absorbance Δ (0'-20')", "setting": "[2]", "value": "0.382 ± 0.021"}
    ]},
    {"smiles": "CCNC(=O)C1CSCN1C(=O)[C@@H]1CCC(=O)N1", "note": "(stereo partly drawn) [Ic, N-(3-pyroglutamyl-thiazolidine-4-carbonyl)-ethylamine] ([pGlu]-[ξThz]-NHEt)", "values": [
      {"measurement": "nmol cytochrome C reduced/1 × 10^6 macrophages (mean ± S.E.)", "setting": "peritoneal macrophages", "value": "7.83 ± 0.72 nmol cytochrome C reduced/1 ×"},
      {"measurement": "Protection (%)", "setting": "E. coli", "value": 40, "unit": "%"},
      {"measurement": "N° dead mice/N° treated mice", "setting": "E. coli", "value": "6/10"},
      {"measurement": "Weight left ear/Weight right ear", "setting": "[1]", "value": "1.706 ± 0.028"},
      {"measurement": "Increase %", "setting": "[1]", "value": 29.05, "unit": "%"},
      {"measurement": "Rosette forming cells/spleen cells %", "setting": "rosette forming cells", "value": "1.145 ± 0.032", "unit": "%"},
      {"measurement": "Rosette forming cells change %", "setting": "rosette forming cells", "value": "+34.71%"},
      {"measurement": "Variation versus the cyclophosphamide treated group %", "setting": "[2]", "value": "+15.94%"},
      {"measurement": "Absorbance Δ (0'-20')", "setting": "[2]", "value": "0.371 ± 0.016"}
    ]},
    {"smiles": "O=C1CC[C@@H](C(=O)N2CSCC2C(=O)O)N1", "note": "(stereo partly drawn) [PGT, 3-pyroglutamyl-thiazolidine-4-carboxylic acid, reference compound] ([pGlu]-[ξThz]-OH)", "values": [
      {"measurement": "nmol cytochrome C reduced/1 × 10^6 macrophages (mean ± S.E.)", "setting": "peritoneal macrophages", "value": "8.85 ± 0.75 nmol cytochrome C reduced/1 ×"},
      {"measurement": "Protection (%)", "setting": "E. coli", "value": 20, "unit": "%"},
      {"measurement": "N° dead mice/N° treated mice", "setting": "E. coli", "value": "8/10"},
      {"measurement": "Weight left ear/Weight right ear", "setting": "[1]", "value": "1.579 ± 0.027"},
      {"measurement": "Increase %", "setting": "[1]", "value": 19.44, "unit": "%"},
      {"measurement": "Rosette forming cells/spleen cells %", "setting": "rosette forming cells", "value": "1.125 ± 0.040", "unit": "%"},
      {"measurement": "Rosette forming cells change %", "setting": "rosette forming cells", "value": "+32.35%"},
      {"measurement": "Variation versus the cyclophosphamide treated group %", "setting": "[2]", "value": "+14.06%"},
      {"measurement": "Absorbance Δ (0'-20')", "setting": "[2]", "value": "0.365 ± 0.018"}
    ]}
  ]
}
